Assay results as given in patent US20170273922A1, “UREA AND BIS-UREA BASED COMPOUNDS AND ANALOGUES THEREOF USEFUL IN THE TREATMENT OF ANDROGEN RECEPTOR MEDIATED DISEASES OR DISORDERS” (THE ROYAL INSTITUTION FOR THE ADVACEMENT OF LEARNING/MCGILL …, priority 2014, published 2017).
“Also recorded” adds a separate entry of the source.

Columns and labels:
LNCaP cells [1] = test: MTT assay (cytotoxicity), LNCaP cells; assay type: cell-based; conditions: LNCaP cells, 72 h, Table 4.2
Summary of the method: (§1)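 72 h continuous drug exposure, RPMI 1640/10% FBS, MTT endpoint; DMSO vehicle control.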

LNCaP cells [2] = test: Western blot analysis of apoptosis in LNCaP cells; assay type: cell-based; conditions: whole medium, 24 h
Procedure: Experiments were in duplicate and repeated three times. […] LNCaP cells in whole medium were exposed to DMSO vehicle control or compounds for 24 h.

[3] = MTT assay (cytotoxicity), LNCaP cells; assay type: cell-based; conditions: human, LNCaP cells
Summary of the method: as §1

[4] = biological target: T1, H874Y mutant of full-length AR in 22Rv1 cells (Homo sapiens, UniProt P10275, H875Y); test: PSA-luc reporter assay in 22Rv1 cells, DHT-induced (endogenous H874Y full-length AR); assay type: cell-based
T1 sequence (P10275 1-920 H875Y): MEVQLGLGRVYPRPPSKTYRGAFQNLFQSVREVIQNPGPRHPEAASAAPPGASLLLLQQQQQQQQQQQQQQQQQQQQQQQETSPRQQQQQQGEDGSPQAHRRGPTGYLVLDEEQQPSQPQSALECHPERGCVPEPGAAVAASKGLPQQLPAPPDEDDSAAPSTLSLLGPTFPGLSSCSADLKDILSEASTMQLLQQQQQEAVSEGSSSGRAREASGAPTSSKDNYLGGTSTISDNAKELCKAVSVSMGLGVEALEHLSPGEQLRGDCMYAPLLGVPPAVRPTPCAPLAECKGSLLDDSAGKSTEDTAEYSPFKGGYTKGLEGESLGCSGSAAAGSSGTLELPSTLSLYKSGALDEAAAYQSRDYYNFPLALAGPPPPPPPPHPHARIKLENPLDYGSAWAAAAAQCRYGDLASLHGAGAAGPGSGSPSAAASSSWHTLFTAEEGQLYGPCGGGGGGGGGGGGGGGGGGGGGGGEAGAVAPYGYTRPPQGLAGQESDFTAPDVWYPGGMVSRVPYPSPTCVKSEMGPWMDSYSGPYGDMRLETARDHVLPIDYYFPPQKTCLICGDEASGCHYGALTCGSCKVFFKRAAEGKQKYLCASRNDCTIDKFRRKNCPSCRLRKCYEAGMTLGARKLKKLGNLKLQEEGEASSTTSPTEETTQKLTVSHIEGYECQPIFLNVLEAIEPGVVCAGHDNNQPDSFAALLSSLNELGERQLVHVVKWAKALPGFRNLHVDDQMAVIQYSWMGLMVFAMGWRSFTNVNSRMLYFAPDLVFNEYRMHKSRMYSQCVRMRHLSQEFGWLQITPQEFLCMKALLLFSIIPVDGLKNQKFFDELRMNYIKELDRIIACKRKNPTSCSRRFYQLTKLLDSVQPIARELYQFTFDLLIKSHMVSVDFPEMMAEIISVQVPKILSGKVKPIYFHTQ

VP16-AR(507-919) = VP16-AR(507-919) (NTD-deleted) PSA-luc reporter assay; conditions: 10 nM DHT, 24 h; PC3 or HEK293 cells
AR-v7 in LNCaP cells = biological target: T2, AR-v7 in LNCaP cells (Homo sapiens, UniProt P10275); test: PSA-luc reporter assay in LNCaP cells transiently transfected with pIRES-AR-v7; conditions: 24 h
T2 sequence (P10275 1-644 isoform P10275-3): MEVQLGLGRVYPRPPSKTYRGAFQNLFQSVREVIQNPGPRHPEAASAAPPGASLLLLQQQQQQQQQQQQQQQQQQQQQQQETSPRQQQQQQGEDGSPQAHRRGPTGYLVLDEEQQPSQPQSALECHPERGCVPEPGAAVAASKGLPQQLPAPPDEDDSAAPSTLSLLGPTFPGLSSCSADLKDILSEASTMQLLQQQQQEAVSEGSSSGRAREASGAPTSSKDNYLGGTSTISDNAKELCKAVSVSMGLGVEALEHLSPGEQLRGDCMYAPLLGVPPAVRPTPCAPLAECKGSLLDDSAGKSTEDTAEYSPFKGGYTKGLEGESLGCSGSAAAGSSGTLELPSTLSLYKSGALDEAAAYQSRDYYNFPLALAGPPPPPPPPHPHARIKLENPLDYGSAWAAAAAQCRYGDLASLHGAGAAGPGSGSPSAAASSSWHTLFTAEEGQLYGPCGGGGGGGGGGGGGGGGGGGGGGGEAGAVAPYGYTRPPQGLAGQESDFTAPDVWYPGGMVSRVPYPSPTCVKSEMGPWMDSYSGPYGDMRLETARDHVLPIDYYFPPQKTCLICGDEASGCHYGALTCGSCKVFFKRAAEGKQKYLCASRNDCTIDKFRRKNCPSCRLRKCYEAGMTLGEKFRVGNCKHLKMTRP
Procedure: NT, LNCaP cells were transiently transfected with pIRES vector, PSA-luc and pRL-TK. […] Cells were then transiently transfected with PSA-Luc and pRL-TK and exposed to DMSO or compounds for 24 h, in triplicate.

[5] = MTT assay (cytotoxicity), 22Rv1 cells; assay type: cell-based; conditions: human, 22Rv1 cells
Summary of the method: as §1

| Structure (SMILES) | IC50 (LNCaP cells [1]) | apoptosis in LNCaP cells (LNCaP cells [2]) | inhibition of DHT-induced AR activation in 22Rv1 cells (PSA-luc) ([4]; 10 nM DHT, 24 h) | inhibition of DHT-induced activation of VP16-AR(507-919) (PSA-luc) (VP16-AR(507-919)) | activity in LNCaP cells with forced expression of AR-v7 (PSA-luc) (AR-v7 in LNCaP cells) | also measured |
| --- | --- | --- | --- | --- | --- | --- |
| O=C(Nc1cccc(C(F)(F)F)c1)Nc1ccc([N+](=O)[O-])c(C(F)(F)F)c1 [Compound 442] | 0.5 µM | induced apoptosis |  |  |  |  |
| N#Cc1ccc(NC(=O)Nc2cccc(C(F)(F)F)c2)cc1C(F)(F)F [Compound 467] | 0.9 µM | induced apoptosis |  |  |  |  |
| N#Cc1ccc(NC(=O)Nc2cccc(C(F)(F)F)c2)cc1Cl [Compound 492] | 0.8 µM |  |  |  |  |  |
| O=C(N/C=C/c1cccc(C(F)(F)F)c1)Nc1ccncn1 [Compound 562] |  |  | good activity | inactive | remain active | IC50 at 72 h ([3]; 72 h, Table 2.1): 4.4 µM |
| O=C(Nc1ccc(Br)nc1)Nc1cc(C(F)(F)F)cc(C(F)(F)F)c1 [Compound 566] |  |  |  |  |  | IC50 at 72 h ([3]; 72 h, Table 4.1): 0.8 µM; IC50 at 72 h ([5]; 72 h, Table 4.1): 1.1 µM |
| O=C(Nc1cccc(C(F)(F)F)c1)Nc1ccc(NC(=O)c2ccccc2F)c(C(F)(F)F)c1 [Compound 746] |  |  | suppressed; also recorded: good activity | inactive | remain active | IC50 at 72 h ([3]; 72 h treatment, Table 6.1): 1 µM; IC50 at 72 h ([5]; 72 h treatment, Table 6.1): 2.2 µM; inhibition of DHT-induced AR activation in 22Rv1 cells (PSA-luc) ([4]; 1 μM): showed inhibitory activity |
